Here are results for one compound from patent US8039505B2, “Compounds for modulating T-cells” (University of Utah Research Foundation, priority 2007, dated 2011).

For series [1], the system named is HEK293 human kidney cell line. As to the kind of experiment: Cell viability, kidney cell line. Type of series: cell-based. The procedure: Experiments described in this document are carried out in zebrafish embryos (cell cycle experiments) and lck-GFP transgenic larvae (5 to 8 days after fertilization), and in human cell lines (Jurkat is a human T cell leukemia, RS4; 11 is a human B cell leukemia and HEK293 is a human kidney cell line).
(§1) Cell culture experiments: Cells were incubated at 37° C. in 75 mL flasks in RPMI containing 10% FBS, 5 mL Penicillin/Streptomycin (100×) in a total volume of […]. Cells were counted using a hemocytometer, and 25,000 cells were plated in each well of a 96-well plate. Compounds and controls were added and cells were harvested after a 48 hr incubation period.
To assess effects of compounds, cell viability was measured. For this, cells were incubated with MTT [3-(4,5-[…])-2,5 diphenyl Tetrazolium Bromid], a compound that is transformed into a formazan crystal by mitochondrial dehydrogenases. After crystal solubilization with DMSO a blue color (that is proportional to the amount of crystal formed) can be measured. Formazan solution absorbs light at 550-570 nm but not at 620-650 nm. 620-650 nm absorbency results from cell debris and well imperfections. Final optical density (OD) obtained from formazan formation was calculated OD=L1-L2 (background).
Next, the nine compounds were tested for activity against the human T-ALL line: Jurkat and the human B-ALL line RS 4; 11. […]

Series [2] can be described thus: 14-day twice daily gavage in healthy CD-1 male mice. Type of series: in vivo. Particulars: gavage 50, 15 and 5 mg/kg twice per day, 14 days. The method, then: Healthy CD-1 male mice were also gavage-fed with compound 3 at concentrations of 50 mg/kg, 15 mg/kg and 5 mg/kg twice per day. […] Hematological, biochemical, immunological and pathological specimen are currently being evaluated.

The subject of series [3] is human B-ALL line RS 4; 11. Kind of series: MTT cell viability, RS4;11. The class given is cell-based. Conditions: RS4;11, 2.5 μM, 48 hours. The method, then:
FIG. 3 is a graph showing viability of human T-ALL lines incubated with individual compounds. Specifically, two human ALL lines (B-ALL: RS4; 11 and T-ALL: Jurkat) were incubated on day 0 with serum or with 2.5 μM of the indicated compounds (except for aphidicolin 1 μM and cyclosporine 1.5 μM). 48 hours later, cells were tested for viability by MTT test. Results from the mean of 3 to 4 experiments carried out in triplicate (individual dots) and the mean of all experiments (horizontal bar) are indicated. Results are shown for compounds without a cell cycle effect (B). Viability of untreated cells was arbitrarily set at 1.0.
as §1
To assess effects of compounds, cell viability was measured. […] After crystal solubilization with DMSO a blue color (that is proportional to the amount of crystal formed) can be measured. […] Final optical density (OD) obtained from formazan formation was calculated OD=L1-L2 (background). […]

Series [4] is described as follows: Complete blood count (CBC) evaluation in mice. The class given is in vivo, male Swiss Albino mouse. Conditions: mouse, 48 h after dosing. The method, then: The pharmacokinetics of 1H-indole-3-carbaldehyde quinolin-8-ylhydrazone (Compound C3) was evaluated following intravenous (3 mg/kg) and oral (15 mg/kg) solution administration of 1H-indole-3-carbaldehyde quinolin-8-ylhydrazone in male Swiss Albino mouse. The effect of the Test Item, 1H-indole-3-carbaldehyde quinolin-8-ylhydrazone on complete blood count (CBC) was also evaluated. Pharmacokinetic phase consisted of two groups, Group 1 and Group 2. Animals in Group 1 were given intravenous bolus dose in a vehicle containing 5% N,N-dimethylacetamide, 5% CREMOPHOR™ EL and 90% Dextrose solution (5% w/v) and those in Group 2 were given oral solution dose in a vehicle, the composition of which was same as that of intravenous formulation. In addition, the effect of Test Item on complete blood count was evaluated following intravenous and oral dose administration along with its vehicle controls. A total of four groups were used each with 6 mice.
From the pharmacokinetic group, predose samples were collected from 3 animals in each group. Following dose administration terminal blood samples were collected at each of the following time points (in triplicate): 0.083 (only for intravenous), 0.25, 0.5, 1, 2, 4, 8, 12 and 24 hours. At each time point, approximately 500 μL of whole blood was withdrawn from the retro orbital sinus and collected in labeled tubes containing dipotassium EDTA as anticoagulant (20 μL of 200 mM K2 EDTA solution per mL of blood). Plasma was separated by centrifuging the whole blood at about 2500 g for 10 minutes at 4° C. within 1 h of sample collection. Separated plasma was stored below minus 50° C. until bioanalysis. A sensitive LC-MS/MS method was used for the quantitation of 1H-indole-3-carbaldehyde quinolin-8-ylhydrazone. The lower limit of quantitation was 1.04 ng/mL. For CBC evaluation, approximately 500 μL of blood was collected in labeled tubes containing dipotassium EDTA as anticoagulant (10 […]/mL of blood) after 48 h of dose administration from all animals.
A total of 24 mice were divided in to four groups as follows: […]

For the compound `C(=NNc1cccc2cccnc12)c1c[nH]c2ccccc12` [Compound C3, 1H-indole-3-carbaldehyde quinolin-8-ylhydrazone], the “Effect on kidney cell line (viability)” value in series [1] is recorded as “neither the kidney cell line, nor the B-ALL were affected”. Moreover, the Adverse effects entry in series [2] is listed as “No adverse effects were observed”. For the same compound, the “Effect on B-ALL line (viability, MTT)” value in series [3] is “neither the kidney cell line, nor the B-ALL were affected”. Moreover, the “Other hematological parameters vs vehicle control” value in series [4] (intravenous 3 mg/kg and oral 15 mg/kg) is recorded as “no effect”. Besides, the “White blood cell count vs vehicle control” value in series [4] (intravenous 3 mg/kg) was “lower”. Besides, the “Platelet count vs vehicle control” value in series [4] (oral 15 mg/kg) is “lower”.
